Activity calls are given as the source filed them. The rule behind the calls is not given here.
How the values were obtained:
Type in all cases: cell-based
[1] = target: T1, HIF1A/p300/CREB-binding protein (Homo sapiens, UniProt Q09472+Q16665+Q92793); assay: Inhibition of HIF-1alpha/p300/CBP (unknown origin) transcriptional activity expressed in human HeLa cells expressing HRE-Luc/CMV-Luc after 12 hrs under hypoxic condition by dual luciferase reporter gene assay
[2] = test system: HeLa; assay: Cytotoxicity against human HeLa cells at 0.3 to 100 uM
[3] = target: T1, HIF1A/p300/CREB-binding protein; assay: Inhibition of HIF-1alpha/p300/CBP PPI in human HeLa cells assessed as […] of HIF-1alpha accumulation at 3 to 30 uM after 12 hrs under hypoxic condition by Western blot analysis
[4] = target: T1, HIF1A/p300/CREB-binding protein; assay: Inhibition of HIF-1alpha/p300/CBP PPI in human HeLa cells assessed as HIF-1alpha mRNA levels by measuring HIF-1alpha to beta2-microglobulin ratio at 30 uM after 12 hrs under hypoxic condition by qPCR analysis (reference value: 0.90 +/- 0.23)
[5] = target: T1, HIF1A/p300/CREB-binding protein; assay: Inhibition of HIF-1alpha/p300/CBP PPI in human HeLa cells assessed as reduction in HIF-1alpha proteasomal degradation after 12 hrs under hypoxic condition in presence of proteasome inhibitor MG132 by Western blot analysis

Row | Compound | IC50 [1] [µM] | Activity [2] | inhibition [3] | Ratio [4] | inhibition [5]
1 | CC(C)CCOC(=O)C1=C(OC(=O)CC(C)C)CC2(OC(=O)CC(C)C)CCCC1C2 (configuration not stated) | 6.3 | Non-Toxic | – | – | –
2 | CC(C)CCOC(=O)C1=C(O)CC2(O)CCCC1C2 (configuration not stated) | > 100 | Non-Toxic | – | – | –
3 | CC(C)CC(=O)OC1=C(C(=O)OCc2ccccc2)C2CCCC(OC(=O)CC(C)C)(C1)C2 (configuration not stated) | 3 | Non-Toxic | inactive | 1.2 | Dose-dependent effect
4 | O=C(OCc1ccccc1)C1=C(O)CC2(O)CCCC1C2 (configuration not stated) | > 100 | Non-Toxic | – | – | –
5 | OCc1ccc(-c2nn(Cc3ccccc3)c3ccccc23)o1 | – | Non-Toxic | – | – | –
